# Assays:
# MCF-7 C20 cells [1] = assay: Propidium iodide exclusion cell death assay, Nod1-deficient MCF-7 C20 cells; format: cell-based, human; conditions: C20 cells, charcoal-treated serum, γTriDAP/CHX (FIG. 12A, middle panel)
# Protocol: Cell viability assays. […] Subsequently, cells were harvested, washed twice in FACS buffer (PBS containing 1% FCS and 0.1% NaN3) and resuspended in propidium iodide (PI)—containing FACS buffer (4 ug/ml). The extent of cell death was analyzed with a FACSCalibur flow cytometer (Becton Dickinson, Mountain View, Calif.). DAPI staining: MCF-7 cells were plated in chamber slides, and stimulated for 2 days. Cells were washed with PBS and apoptotic nuclei were stained with 1 μg/ml DAPI (Sigma Chemical Co., St. Louis, Mo.). Cells were fixed in 4% paraformaldehyde and examined by fluorescence microscopy.
# (§1) To further investigate the role of Nod1 in apoptosis, a variety of cell types were incubated with the Nod1 ligand, […] (γTriDAP), which specifically activates Nod1. The cell types tested included the parental MCF-7 cell line, the Nod1-deficient MCF-7C20 clone, and a cell line engineered to contain an additional human Nod1 allele (MCF-7Nod1) so that Nod1 was over-expressed. To determine whether the resistance of C20 cells to γTriDAP-induced apoptosis resulted from the absence of Nod1, human Nod1 was stably expressed in MCF-7 C20 cells to produce Nod1-sufficient C20 cells (C20/Nod1). As another control, the parental MCF-7 cell line was transfected with an empty retroviral vector to generate MCF-7 Blasto cells. Cells were treated with γTriDAP in the presence or absence of cycloheximide (CHX) and cell death was then determined by propidium iodide staining and flow cytometry.
# MCF-7 C20/Nod1 cells = assay: Propidium iodide exclusion apoptosis assay, MCF-7 C20/Nod1 cells; format: cell-based, human; conditions: C20/Nod1 and Blasto cells, charcoal-treated serum, increasing estrogen (FIG. 12A)
# Protocol: Cell viability assays. Propidium iodide exclusion assay: Cells were stimulated as indicated for 2 days. Subsequently, cells were harvested, washed twice in FACS buffer (PBS containing 1% FCS and 0.1% NaN3) and resuspended in propidium iodide (PI)—containing FACS buffer (4 ug/ml). The extent of cell death was analyzed with a FACSCalibur flow cytometer (Becton Dickinson, Mountain View, Calif.). DAPI staining: MCF-7 cells were plated in chamber slides, and stimulated for 2 days. Cells were washed with PBS and apoptotic nuclei were stained with 1 μg/ml DAPI (Sigma Chemical Co., St. Louis, Mo.). Cells were fixed in 4% paraformaldehyde and examined by fluorescence microscopy.
# as §1
# To determine whether the presence of estrogens modulates Nod1-induced apoptotic pathway, cells were cultured in medium containing charcoal-treated serum.
# MCF-7 C20 cells [2] = assay: 3H-thymidine proliferation assay, MCF-7 C20 cells; format: cell-based, human; conditions: cells grown in the absence of estrogen, estrogen added; 3H-thymidine (FIG. 11D)
# Protocol: Retroviral transfections. The various genes used in this study were cloned into pMSCV-Blasto, pBabe-Puro or pBabe-Neo retroviral vectors. MCF-7 cells were stably transfected using available procedures. Briefly, amphotropic 293 cells were transfected with retroviral vectors encoding selected Nod1, Nod2 and other proteins. Twenty-four hours post-transfection, cells were incubated at 32° C. overnight to produce viral particles. Target cells were infected the next day with virus-containing 293 cell supernatants containing recombinant retroviral particles. Cells were selected with 10 μg/ml blasticidin S (Calbiochem EMD Biosciences Inc., San Diego, Calif.), 500 μg/ml […] (Invitrogen, Carlsbad, Calif.) or 5 μg/ml puromycin (Calbiochem). The expression of all constructs was confirmed by Western blot analysis. To determine the effects of 17β-estradiol (Calbiochem), cells were cultured in phenol red-free DMEM supplemented with […]. Cells were seeded in 96 well plates with various concentration of 17β-estradiol (E2) for 24 h and pulsed with ^3H-thymidine (1 μCi/well, MP Biomedicals, Irvine, Calif.). Cells were harvested on glass fiber filters and radioactivity measured by liquid scintillation. […]
# MCF-7 Blasto cells = assay: Human xenograft in SCID mice, MCF-7 Blasto cells; format: in vivo; conditions: mice injected with MCF-7 Blasto cells, estrogen pellets present (FIG. 11B)
# Protocol: (§2) Human xenografts in nude mice. MCF-7 Blasto, MCF-7 C20 and MCF-7 C20/Nod1 cells were trypsinized, washed once with PBS and resuspended to a concentration of 1.5×10^7/ml. Two hundred microliters of each suspension were inoculated subcutaneously into the flank of athymic SCID/SCID or SCID/Nod (non-obese diabetic) female mice. Tumor size was assessed once a week. Tumor volume was calculated.
# (§3) Nod1 controls tumor formation. Nod1-dependent apoptotic pathways might be important in a number of biological processes, including tumor cell growth regulation and a failure of malignant cells to undergo cell death, leading to tumorigenesis. A xenograft model of tumor growth in SCID mice was used to examine the role that Nod1 plays in tumor growth and tumor rejection. Populations of MCF-7Blasto, MCF-7C20 and MCF-7C20Nod1 cells (each totaling about 3×10^6 cells), were separately injected subcutaneously into the flanks of female mice to induce tumor growth in SCID/SCID or SCID/Nod1 mice. Animals were scored for tumor formation once a week post-injection for up to 8 weeks.
# (§4) In most studies, tumor formation by MCF-7 cells requires supplementation of estrogens for tumorigenesis in nude mice, even when cells are inoculated at high concentration. To further examine the role of estrogen in tumorigenesis, all three cell lines were injected into mice along with estrogen pellets (FIG. 11B). […]
# MCF-7 C20 cells [3] = assay: Human xenograft in SCID mice, MCF-7 C20 cells; format: in vivo; conditions: mice injected with MCF-7 C20 cells, estrogen pellets present (FIG. 11B)
# Protocol: as §2, §3, §4
# MCF-7 C20/Nod1 = assay: Human xenograft in SCID mice, MCF-7 C20/Nod1 cells; format: in vivo; conditions: mice that received MCF-7 C20/Nod1, estrogen pellets present (FIG. 11B)
# Protocol: as §2, §3, §4
substance,measurement,setting,value
17β-estradiol [estrogen],effect of estrogen upon apoptosis,MCF-7 C20 cells [1],little or no effect
same,effect of estrogen upon γTriDAP-induced apoptosis,MCF-7 C20/Nod1 cells,apoptosis increased in a dose-dependent manner
same,proliferative response,MCF-7 C20 cells [2],strong proliferative response
same,tumor growth,MCF-7 Blasto cells,tumors grew
same,tumor growth,MCF-7 C20 cells [3],grew even larger
same,tumor growth,MCF-7 C20/Nod1,did not grow tumors

# Reference: patent US20060194740A1, “NOD1 as an anti-tumor agent” (priority 2005, published 2006)
